Key:
Assay type in all cases: in vivo
[1] = test system: rat model exhibiting cognitive ability decreased by treatment with dizocilpine; experiment: Object recognition test in rat model with cognitive ability decreased by dizocilpine; details: for recognition index: P<0.01 vs negative control
Description: As an animal model of cognitive disorder, an animal model of which the cognitive ability was decreased by administering dizocilpine, a cognitive inhibitor, was used.
(§1) Male rats (Wistar, 4 weeks old, Orient Bio Co., Ltd.) were purchased and acclimatized for one week or more in an animal cage. The experimental animals were raised in a light-controlled environment (illuminated for 12 hours/nonilluminated for 12 hours) and stored and managed according to the laboratory animal care standards of the Institutional Animal Care and Use Committee (IACUC) in an environment where a temperature of 19° C. to 25° C. and a relative humidity of 30% to 70% were maintained and water and food could be freely available. The rats were stabilized for one week or more, and then used for an object recognition test. The rats were randomly divided into groups and the test was performed under illumination.
To create an animal model inducing symptoms of decreased cognitive ability, the experimental animals were treated with dizocilpine, an N-methyl-D-aspartate (NMDA) receptor inhibitor.
(§2) Dizocilpine (purchased from Sigma) was dissolved in physiological saline used as a vehicle to be freshly prepared, and subcutaneously administered at a dose of 0.1 mg/kg in a volume of 1 ml per 1 kg of rat body weight 30 minutes before training. To a control group, only physiological saline was administered.
The test compound was dissolved in 5% DMSO (dimethyl sulfoxide) in 10% Cremophor, and orally administered at doses of 0.03, 0.1, and 0.3 mg/kg in a volume of 1 ml per 1 kg of rat body weight one hour before training. To a control group, only vehicle (5% DMSO in 10% Cremophor) was administered.
Each rat was handled by the experimenter for 3 minutes or more, and box acclimation for 3 minutes was performed two times in an empty box before the experiment. After administration of vehicle or test compound intraperitoneally at a dose of 1 mg/kg one hour before training and of vehicle or dizocilpine subcutaneously 30 minutes before training, the rats were boxed for training. Training was conducted by exposing the rats in a box in which two identical plastic cylinders or stainless square pyramids were placed. One hour after training, the test was performed in a box in which one plastic cylinder and one stainless square pyramid was placed. During the test, the time during which the rat explored each object was measured. The test results were analyzed using a stainless square pyramid as a novel object in the case of rats trained in a box in which two plastic cylinders were placed and a plastic cylinder as a novel object in the case of rats trained in a box in which two stainless steel pyramids were placed.
The recognition index was calculated based on the time during which the object was explored, the data on the recognition index between groups was analyzed by one-way analysis of variance (ANOVA) and Dunnett's multiple comparison test, and then the effect was defined as significant when p<0.05. All results were expressed as mean±SEM.

[2] = test system: rat model exhibiting cognitive ability decreased by treatment with dizocilpine; experiment: Y-maze test in rat model with cognitive ability decreased by dizocilpine
Description: as §1, with “Committee” for “Committee (IACUC)”, “a Y-maze” for “an object recognition”
To create an animal model inducing symptoms of decreased cognitive ability, experimental animals were treated with dizocilpine, an NMDA receptor inhibitor.
as §2
The test compound was dissolved in 5% DMSO in 9.5% Cremophor, and orally administered at doses of 0.1, 0.3, and 1 mg/kg in a volume of 5 ml per 1 kg of rat body weight one hour before training. To a control group, only vehicle (5% DMSO in 9.5% Cremophor) was administered.
The rats were handled by the experimenter for 3 minutes for two days, and a Y-maze test was performed the next day. After administration of vehicle or test compound intraperitoneally one hour before test and of vehicle or dizocilpine subcutaneously 30 minutes before test, the Y-maze test was performed for 5 minutes by placing the rat at the end of one arm in the Y-maze and allowing the rat to move freely. The three arms positioned at the same angle in the Y-maze had the same length of 45 cm, the same width of 10 cm, and the same height of 20 cm. A case where a rat visited three different arms in succession was defined as an alternation behavior.
The alternation rate was determined by identifying the alternation behavior of the rat based on the visit record to each arm in the Y-maze test, the data on the alternation rate between groups was analyzed by one-way ANOVA and Dunnett's multiple comparison test, and then the effect was defined as significant when p<0.05. All results were expressed as mean±SEM.

[3] = test system: rat model undergone natural forgetting; experiment: Object recognition test in natural forgetting rat model; details: for Recognition index (mean ± SEM): test 24 h after training

C[C@]12N[C@H](Cc3ccccc31)c1ccccc12 [Dizocilpine, dizocilpine, reference compound]
Recognition index (mean ± SEM) ([1]; dizocilpine 0.1 mg/kg sc only (negative control), vehicle group 63.29 ± 1.56): 49.77 ± 1.03 | Alternation rate (mean ± SEM) ([2]; dizocilpine 0.1 mg/kg sc only (negative control), vehicle group 70.1 ± 2.8): 49.2 ± 5.3 | alternation rate ([2]; dizocilpine only (negative control), P<0.001 vs vehicle group): 49.2 ± 5.3%

Fc1ccc(-c2cnc3nc(COc4ccccn4)cn3c2)c(C(F)(F)F)c1 [test compound, 6-[4-fluoro-2-(trifluoromethyl)phenyl]-2-(2-pyridyloxymethyl)imidazo[1,2-a]pyrimidine]
Recognition index (mean ± SEM) ([1]; dizocilpine 0.1 mg/kg sc + test compound 0.03 mg/kg po, test 1 h after training, index = novel/total exploring time × 100): 51.95 ± 1.79 | Recognition index (mean ± SEM) ([1]; dizocilpine 0.1 mg/kg sc + test compound 0.1 mg/kg po, test 1 h after training): 57.95 ± 1.8 | Recognition index (mean ± SEM) ([1]; dizocilpine 0.1 mg/kg sc + test compound 0.3 mg/kg po, test 1 h after training): 57.62 ± 1.89 | recognition index ([1]; dizocilpine + test compound 0.1 mg/kg): 57.95±1.8% | recognition index ([1]; dizocilpine + test compound 0.3 mg/kg): 57.62±1.89% | Alternation rate (mean ± SEM) ([2]; dizocilpine 0.1 mg/kg sc + test compound 0.1 mg/kg po, 5 min Y-maze, actual/maximum possible alternations × 100): 67.3 ± 3.5 | Alternation rate (mean ± SEM) ([2]; dizocilpine 0.1 mg/kg sc + test compound 0.3 mg/kg po): 57.3 ± 5.7 | Alternation rate (mean ± SEM) ([2]; dizocilpine 0.1 mg/kg sc + test compound 1 mg/kg po): 49.9 ± 7.2 | alternation rate ([2]; dizocilpine + test compound 0.1 mg/kg, P<0.001 vs negative control): 67.3 ± 3.5% | alternation rate ([2]; dizocilpine + test compound 0.3 mg/kg, tendency toward recovery): 57.3 ± 5.7% | Recognition index (mean ± SEM) ([3]; test compound 0.1 mg/kg po, first experiment, vehicle 48.61 ± 1.87): 56.57 ± 2.37 | recognition index ([3]; test compound 0.1 mg/kg, first experiment, P<0.05 vs control): 56.57±2.37 | Recognition index (mean ± SEM) ([3]; test compound 0.3 mg/kg po, first experiment): 59.77 ± 2.64 | recognition index ([3]; test compound 0.3 mg/kg, first experiment, P<0.01 vs control): 59.77±2.64 | Recognition index (mean ± SEM) ([3]; test compound 1 mg/kg po, second experiment, vehicle 51.20 ± 2.61): 60.91 ± 2.72 | recognition index ([3]; test compound 1 mg/kg, second experiment, P<0.01 vs control): 60.91±2.72 | Recognition index (mean ± SEM) ([3]; test compound 3 mg/kg po, second experiment): 56.20 ± 2.27 | recognition index ([3]; test compound 3 mg/kg, second experiment): 56.20±2.27

— patent US20220370461A1, “USE OF IMIDAZOPYRIMIDINE OR IMIDAZOTRIAZINE COMPOUNDS FOR PREVENTION, ALLEVIATION, OR TREATMENT OF COGNITIVE DISORDERS, OR FOR IMPROVING COGNITIVE FUNCTION” (SK BIOPHARMACEUTICALS CO., LTD., priority 2019, published 2022)
